Data taken from patent US20100021918A1, “METHOD FOR ASSAYING ACTION OF ANTITUMOR AGENT USING SPLICING DEFECTS AS INDEX” (Eisai R&D Management Co., Ltd., priority 2007, published 2010).

Test system: human colon carcinoma cell strain WiDr
Assay: Microarray analysis (Human Exon 1.0 ST Array) of intron expression, Table 1
Type: cell-based
Conditions: six hours
Description: Using RNA purified from human colon carcinoma cell strain WiDr treated with 14 nM of (8E,12E,14E)-7-((4-cycloheptylpiperazin-1-yl)carbonyl)oxy-3,6,16,21-tetrahydroxy-6,10,12,16,20-pentamethyl-18,19-epoxytricosa-8,12,14-trien-11-olide (also referred to as “[…]”) for six hours, microarray analysis (Human Exon 1.0 ST Array: Affymetrix) was carried out. Not only does this array comprehensively cover the exons for all genes, but it is also designed to have probes for regions estimated as potential exons by a computer prediction program, which enables detection of the expression of the exons and introns of all genes in theory.
WiDr cells were first suspended in RPMI1640 medium (containing 10% FBS, penicillin, and streptomycin) and seeded in a 10 cm dish (2×10^6 cells/dish). After an overnight culture in an incubator with 5% carbon dioxide gas at 37° C., the medium was changed with medium containing 14 nM of (8E,12E,14E)-7-((4-cycloheptylpiperazin-1-yl)carbonyl)oxy-3,6,16,21-tetrahydroxy-6,10,12,16,20-pentamethyl-18,19-epoxytricosa-8,12,14-trien-11-olide or containing vehicle alone. After cultured for additional six hours, TRI reagent (SIGMA) were added to the cells and the cells were harvested. RNA was purified in accordance with the protocol of TRI reagent, followed by further purification with RNeasy (QIAGEN). Absorbance at 260 nm was measured to quantify an amount of RNA. This experiment was repeated three times and RNA samples (n=3) were prepared.
Ribosomal RNA was removed from 1 μg of each total RNA of control cells (n=3) and cells with the treatment (n=3) by using RiboMinus Human/Mouse Transcriptome Isolation Kit (Invitrogen). Single stranded cDNA synthesis, double stranded cDNA synthesis, cRNA synthesis, second single stranded cDNA synthesis, cDNA fragmentation, and cDNA labeling in order were carried out for the total RNA from which ribosomal RNA was removed, by using GeneChip Whole Transcript Sense Target Labeling and Control Reagents (Affymetrix) to make a cDNA probe. The cDNA probe was used for hybridization with Human Exon 1.0 ST Array (Affymetrix). The array was washed and stained, and luminescence intensity was measured by a scanner.
The expression level of the probe set and the gene was quantified by using Expression Console Ver. 1.0 (Affymetrix) with Summarization Method and Normalization Method being set to “Median polish as used in RMA” and “None”, respectively. The expression level of the probe was normalized with that of the gene. Welch's t-test was conducted for the treated group and the control group to determine a p value, which was converted into a q value by controlling False Discovery Ratio to pick out a significant probe set.
Probe sets showing that the q value was less than 1%; the normalized change in the level expression of the probe set in the group with the treatment was more than 10 times; the expression level of the probe set and the gene in the group with the treatment was more than 100; and probe set annotation was “extended, full, free”, were picked out and further arranged by gene. A gene was, when more than one probe sets therefor were found, determined as a candidate gene with increased expression level of the intron regions (Table 1). In Table 1, for the gene evaluated, gene name (Gene Name), abbreviated name (Gene Symbol), accession number (Accession), alias name (Synonym), transcription number in Human Exon 1.0 ST Array (Human Exon 1.0 ST Array), chromosome number (Chromosome), type of strand (Strand), start region (Start), stop region (Stop), and change in expression level (Fold Change) were respectively shown.

With CCC(O)C(C)C1OC1CC(C)(O)/C=C/C=C(\C)C1OC(=O)CC(O)CCC(C)(O)C(OC(=O)N2CCN(C3CCCCCC3)CC2)/C=C/C1C (centres unmarked) [E7107, (8E,12E,14E)-7-((4-cycloheptylpiperazin-1-yl)carbonyl)oxy-3,6,16,21-tetrahydroxy-6,10,12,16,20-pentamethyl-18,19-epoxytricosa-8,12,14-trien-11-olide] the “Fold Change (change in expression level, intron probe sets) ADRM1” value (gene ADRM1, 14 nM) was 13.51, the “Fold Change (change in expression level, intron probe sets) AK2” value (gene AK2, 14 nM) was 10.05 and the “Fold Change (change in expression level, intron probe sets) ARFIP2” value (gene ARFIP2, 14 nM) was 12.04. The “Fold Change (change in expression level, intron probe sets) ARHGAP12” value (gene ARHGAP12, 14 nM) was 11.60, the “Fold Change (change in expression level, intron probe sets) ATP1B1” value (gene ATP1B1, 14 nM) was 12.11 and the “Fold Change (change in expression level, intron probe sets) BAT2D1” value (gene BAT2D1, 14 nM) was 11.26. For the same compound, the “Fold Change (change in expression level, intron probe sets) BPTF” value (gene BPTF, 14 nM) was 17.61, the “Fold Change (change in expression level, intron probe sets) BXDC2” value (gene BXDC2, 14 nM) was 25.94 and the “Fold Change (change in expression level, intron probe sets) C6orf166” value (gene C6orf166, 14 nM) was 19.23. The “Fold Change (change in expression level, intron probe sets) C9orf86 // KIAA1984” value (gene C9orf86 // KIAA1984, 14 nM) was 13.66, the “Fold Change (change in expression level, intron probe sets) C10orf18” value (gene C10orf18, 14 nM) was 19.86 and the “Fold Change (change in expression level, intron probe sets) C16orf80” value (gene C16orf80, 14 nM) was 16.25. The “Fold Change (change in expression level, intron probe sets) CABLES1” value (gene CABLES1, 14 nM) was 16.94, the “Fold Change (change in expression level, intron probe sets) CCND1” value (gene CCND1, 14 nM) was 12.66 and the “Fold Change (change in expression level, intron probe sets) CCNL2” value (gene CCNL2, 14 nM) was 12.84. The “Fold Change (change in expression level, intron probe sets) CDC20” value (gene CDC20, 14 nM) was 18.22, the “Fold Change (change in expression level, intron probe sets) CENPL” value (gene CENPL, 14 nM) was 14.13 and the “Fold Change (change in expression level, intron probe sets) DCBLD2” value (gene DCBLD2, 14 nM) was 19.52. For the same compound, the “Fold Change (change in expression level, intron probe sets) DDEF2” value (gene DDEF2, 14 nM) was 22.92, the “Fold Change (change in expression level, intron probe sets) DKC1” value (gene DKC1, 14 nM) was 11.53 and the “Fold Change (change in expression level, intron probe sets) DNAJB1” value (gene DNAJB1, 14 nM) was 11.95. The “Fold Change (change in expression level, intron probe sets) EIF2C2” value (gene EIF2C2, 14 nM) was 21.33, the “Fold Change (change in expression level, intron probe sets) EIF4A1” value (gene EIF4A1, 14 nM) was 16.15 and the “Fold Change (change in expression level, intron probe sets) EIF5” value (gene EIF5, 14 nM) was 12.30. The “Fold Change (change in expression level, intron probe sets) FOXK2” value (gene FOXK2, 14 nM) was 18.79, the “Fold Change (change in expression level, intron probe sets) GNB2L1” value (gene GNB2L1, 14 nM) was 11.87 and the “Fold Change (change in expression level, intron probe sets) GNL3” value (gene GNL3, 14 nM) was 14.08. The “Fold Change (change in expression level, intron probe sets) GTPBP4” value (gene GTPBP4, 14 nM) was 12.24, the “Fold Change (change in expression level, intron probe sets) HMGCS1” value (gene HMGCS1, 14 nM) was 13.21 and the “Fold Change (change in expression level, intron probe sets) HSPA9” value (gene HSPA9, 14 nM) was 13.33. The “Fold Change (change in expression level, intron probe sets) HSPH1” value (gene HSPH1, 14 nM) was 15.12, the “Fold Change (change in expression level, intron probe sets) IDI1” value (gene IDI1, 14 nM) was 19.25 and the “Fold Change (change in expression level, intron probe sets) ILF2” value (gene ILF2, 14 nM) was 13.79. The “Fold Change (change in expression level, intron probe sets) ITGB1” value (gene ITGB1, 14 nM) was 21.48, the “Fold Change (change in expression level, intron probe sets) JARID1C” value (gene JARID1C, 14 nM) was 14.09 and the “Fold Change (change in expression level, intron probe sets) KIAA0174” value (gene KIAA0174, 14 nM) was 19.65. For the same compound, the “Fold Change (change in expression level, intron probe sets) KIAA1429” value (gene KIAA1429, 14 nM) was 14.19, the “Fold Change (change in expression level, intron probe sets) KLHL18” value (gene KLHL18, 14 nM) was 15.00 and the “Fold Change (change in expression level, intron probe sets) KRT18” value (gene KRT18, 14 nM) was 13.41. The “Fold Change (change in expression level, intron probe sets) LMO7” value (gene LMO7, 14 nM) was 14.34, the “Fold Change (change in expression level, intron probe sets) LTV1” value (gene LTV1, 14 nM) was 18.37 and the “Fold Change (change in expression level, intron probe sets) MAT2A” value (gene MAT2A, 14 nM) was 12.29. For the same compound, the “Fold Change (change in expression level, intron probe sets) MBNL2” value (gene MBNL2, 14 nM) was 28.86, the “Fold Change (change in expression level, intron probe sets) MYO1E” value (gene MYO1E, 14 nM) was 14.49 and the “Fold Change (change in expression level, intron probe sets) NET1” value (gene NET1, 14 nM) was 13.02. For the same compound, the “Fold Change (change in expression level, intron probe sets) NUPL1” value (gene NUPL1, 14 nM) was 12.63, the “Fold Change (change in expression level, intron probe sets) PUM2” value (gene PUM2, 14 nM) was 19.01 and the “Fold Change (change in expression level, intron probe sets) RAF1” value (gene RAF1, 14 nM) was 16.41. For the same compound, the “Fold Change (change in expression level, intron probe sets) RIOK3” value (gene RIOK3, 14 nM) was 13.67, the “Fold Change (change in expression level, intron probe sets) RNF40” value (gene RNF40, 14 nM) was 15.84 and the “Fold Change (change in expression level, intron probe sets) RSPRY1” value (gene RSPRY1, 14 nM) was 14.32. For the same compound, the “Fold Change (change in expression level, intron probe sets) SART3” value (gene SART3, 14 nM) was 15.13, the “Fold Change (change in expression level, intron probe sets) SLC2A1” value (gene SLC2A1, 14 nM) was 16.44 and the “Fold Change (change in expression level, intron probe sets) SMAD3” value (gene SMAD3, 14 nM) was 12.88. For the same compound, the “Fold Change (change in expression level, intron probe sets) SMURF2” value (gene SMURF2, 14 nM) was 16.60, the “Fold Change (change in expression level, intron probe sets) SNX19” value (gene SNX19, 14 nM) was 17.12 and the “Fold Change (change in expression level, intron probe sets) SPRED2” value (gene SPRED2, 14 nM) was 31.56. For the same compound, the “Fold Change (change in expression level, intron probe sets) ST3GAL1” value (gene ST3GAL1, 14 nM) was 12.77, the “Fold Change (change in expression level, intron probe sets) SUPV3L1” value (gene SUPV3L1, 14 nM) was 18.81 and the “Fold Change (change in expression level, intron probe sets) TARDBP” value (gene TARDBP, 14 nM) was 18.13. The “Fold Change (change in expression level, intron probe sets) TES” value (gene TES, 14 nM) was 15.95, the “Fold Change (change in expression level, intron probe sets) TINF2” value (gene TINF2, 14 nM) was 11.05 and the “Fold Change (change in expression level, intron probe sets) TJP1” value (gene TJP1, 14 nM) was 11.55. For the same compound, the “Fold Change (change in expression level, intron probe sets) UBE3A” value (gene UBE3A, 14 nM) was 19.35, the “Fold Change (change in expression level, intron probe sets) USP47” value (gene USP47, 14 nM) was 12.32 and the “Fold Change (change in expression level, intron probe sets) VIL2” value (gene VIL2, 14 nM) was 17.50. The “Fold Change (change in expression level, intron probe sets) WAC” value (gene WAC, 14 nM) was 18.53, the “Fold Change (change in expression level, intron probe sets) WDR45L” value (gene WDR45L, 14 nM) was 12.59 and the “Fold Change (change in expression level, intron probe sets) WDR73” value (gene WDR73, 14 nM) was 30.61. For the same compound, the “Fold Change (change in expression level, intron probe sets) WDR74” value (gene WDR74, 14 nM) was 12.70, the “Fold Change (change in expression level, intron probe sets) WEE1” value (gene WEE1, 14 nM) was 12.26 and the “Fold Change (change in expression level, intron probe sets) YTHDC1” value (gene YTHDC1, 14 nM) was 10.66. For the same compound, the “Fold Change (change in expression level, intron probe sets) ZNF384” value (gene ZNF384, 14 nM) was 12.13 and the “Fold Change (change in expression level, intron probe sets) ZNF410” value (gene ZNF410, 14 nM) was 12.01.
